Source: patent US20260297068A1, “SOLID FORM OF N-SUBSTITUTED PHENYLSULFONAMIDE COMPOUND” (SHANGHAI LEADO PHARMATECH CO. LTD., priority 2022, published 2026)
Counter-ions that a name gives are not always drawn.

Assays:
[1] = Solid-state stability (HPLC purity and crystal form by XRPD after storage); type: physicochemical; conditions: for Purity / Initial purity / HPLC purity after storage at 168 h / HPLC purity after storage at 336 h / HPLC purity after storage at 672 h: HPLC; for Initial purity: starting sample before storage; for HPLC purity after storage at 168 h / HPLC purity after storage at 336 h / HPLC purity after storage at 672 h: solid state, open
Description: About 10 mg of each solid form of the compound was weighed and added to the HPLC vial, respectively, the bottleneck was sealed with a sealing film, and 10 small holes were made on the film. The vial was placed in 25° C./60% RH and 40° C./75% RH environment for 4 weeks, samples were taken in the 1st week, the 2nd week and the 4th week respectively, the purity (by HPLC analysis) and crystal form (by X ray powder diffraction analysis) of the sample were investigated.

[2] = Hygroscopicity by dynamic moisture adsorption (DVS); type: physicochemical; conditions: 25° C./80% RH, 0% RH-95% RH adsorption curve
Description: Dynamic moisture adsorption (DVS) analysis: the instrument is a DVS Intrinsic produced by SMS company (Surface Measurement Systems); temperature, 25° C.; carrier gas, flow rate: nitrogen, 200 mL/min; mass change per unit time: 0.002%/min; relative humidity range: 0% RH-95% RH.
Dynamic moisture absorption (DVS) was used to test their hygroscopicity.

[3] = 25 °C/60% RH/open, 1 week, 10080 min
[4] = 25 °C/60% RH/open, 2 weeks, 20160 min
[5] = 25 °C/60% RH/open, 4 weeks, 40320 min
[6] = 40 °C/75% RH/open, 1 week, 10080 min
[7] = 40 °C/75% RH/open, 2 weeks, 20160 min
[8] = 40 °C/75% RH/open, 4 weeks, 40320 min
[9] = 25° C./60% RH and 40° C./75% RH, 4 weeks, result in words

| Purity [1, 3] [area %] | Purity [1, 4] [area %] | Purity [1, 5] [area %] | Purity [1, 6] [area %] | Purity [1, 7] [area %] | Purity [1, 8] [area %] | Initial purity [1] [area %] | moisture adsorption value (moisture uptake) [2] [%] | HPLC purity after storage at 168 h ([1]; 25 °C/60% RH/open, 1 week) [%] | HPLC purity after storage at 336 h ([1]; 25 °C/60% RH/open, 2 weeks) [%] | HPLC purity after storage at 672 h ([1]; 25 °C/60% RH/open, 4 weeks) [%] | HPLC purity after storage at 168 h ([1]; 40 °C/75% RH/open, 1 week) [%] | HPLC purity change on storage [1, 9] | crystalline phase change on storage (XRPD) [1, 9] | HPLC purity after storage at 336 h ([1]; 40 °C/75% RH/open, 2 weeks) [%] | HPLC purity after storage at 672 h ([1]; 40 °C/75% RH/open, 4 weeks) [%] | SMILES |
| --- | --- | --- | --- | --- | --- | --- | --- | --- | --- | --- | --- | --- | --- | --- | --- | --- |
| 98.87 | 98.85 | 98.82 | 98.87 | 98.82 | 98.79 | 98.87 |  |  |  |  |  |  |  |  |  | CNCc1ccc(NS(=O)(=O)c2ccsc2)c(-c2ccco2)c1 [benzene sulfonate crystal form J, N-(2-(furan-2-yl)-4-((methylamino)methyl)-phenyl)thiophene-3-sulfonamide] |
| 98.97 | 98.92 | 98.87 | 99.02 | 98.9 | 99 | 99.02 | 5.5 |  |  |  |  |  |  |  |  | CNCc1ccc(NS(=O)(=O)c2ccsc2)c(-c2ccco2)c1 [hydrochloride crystal form C, N-(2-(furan-2-yl)-4-((methylamino)methyl)phenyl)thiophene-3-sulfonamide] |
| 98.11 | 98.09 | 98.04 | 98.11 | 98.06 | 98.01 | 98.11 |  |  |  |  |  |  |  |  |  | CNCc1ccc(NS(=O)(=O)c2ccsc2)c(-c2ccco2)c1 [Phosphate crystal form G, N-(2-(furan-2-yl)-4-((methylamino)methyl)phenyl)thiophene-3-sulfonamide] |
| 98.74 | 98.65 | 98.78 | 98.76 | 98.65 | 98.78 | 98.77 | 1.3 |  |  |  |  |  |  |  |  | CNCc1ccc(NS(=O)(=O)c2ccsc2)c(-c2ccco2)c1 [sulfate crystal form D, N-(2-(furan-2-yl)-4-((methylamino)methyl)phenyl)thiophene-3-sulfonamide] |
| 98.72 | 98.7 | 98.79 | 98.74 | 98.75 | 98.68 | 98.72 | 1.4 |  |  |  |  |  |  |  |  | CNCc1ccc(NS(=O)(=O)c2ccsc2)c(-c2ccco2)c1 [malate crystal form F, N-(2-(furan-2-yl)-4-((methylamino)methyl)phenyl)thiophene-3-sulfonamide] |
| 98.71 | 98.62 | 98.6 | 98.7 | 98.6 | 98.53 | 98.71 |  |  |  |  |  |  |  |  |  | CNCc1ccc(NS(=O)(=O)c2ccsc2)c(-c2ccco2)c1 [Tartrate crystal form H, N-(2-(furan-2-yl)-4-((methylamino)methyl)phenyl)thiophene-3-sulfonamide] |
|  |  |  |  | 98.5 | 98.52 | 98.55 | 0.2 | 98.5 | 98.5 | 98.6 | 98.4 |  |  |  |  | CNCc1ccc(NS(=O)(=O)c2ccsc2)c(-c2ccco2)c1 [fumarate crystal form B, N-(2-(furan-2-yl)-4-((methylamino)methyl)phenyl)thiophene-3-sulfonamide] |
| 98.61 | 98.58 | 98.57 | 98.61 | 98.54 | 98.32 | 98.61 |  |  |  |  |  |  |  |  |  | CNCc1ccc(NS(=O)(=O)c2ccsc2)c(-c2ccco2)c1 [Pyroglutamate crystal form I, N-(2-(furan-2-yl)-4-((methylamino)methyl)phenyl)thiophene-3-sulfonamide] |
| 98.92 | 98.86 | 98.94 | 98.92 | 98.72 | 98.98 | 98.82 | 0.6 |  |  |  |  |  |  |  |  | CNCc1ccc(NS(=O)(=O)c2ccsc2)c(-c2ccco2)c1 [succinate crystal form E, N-(2-(furan-2-yl)-4-((methylamino)methyl)phenyl)thiophene-3-sulfonamide] |
| 98.18 | 98.14 | 98.1 | 98.19 |  |  | 98.11 | 1.6 |  |  |  |  | did not decrease significantly | no detectable crystalline phase changes | 98.2 | 98.1 | CNCc1ccc(NS(=O)(=O)c2ccsc2)c(-c2ccco2)c1 [free crystal form A, N-(2-(furan-2-yl)-4-((methylamino)methyl)phenyl)thiophene-3-sulfonamide] |
| 98.64 | 98.61 | 98.59 | 98.64 | 98.58 | 98.46 | 98.64 |  |  |  |  |  |  |  |  |  | CNCc1ccc(NS(=O)(=O)c2ccsc2)c(-c2ccco2)c1 [Malonate crystal form K, N-(2-(furan-2-yl)-4-((methylamino)methyl)phenyl)thiophene-3-sulfonamide] |
